In patent US4377687A, “Analogs of 1-(2-chloroethyl)-1-nitroso-3-(cycloheyl)-urea substituted by heterocyclic rings or alkyl radicals” (Stiftung Deutsches Krebsforschungszentrum, priority 1978, dated 1983):
Where two headings read alike, the source gives them in different places.

Legend:
[1] = system: rat leukemia L 5222; assay: Chemotherapeutic activity against rat Leukemia L5222; format: in vivo, rat (BD IX rats); conditions: rat, in vivo
Description: Chemotherapeutic activity of methylformylamino-CNU against rat Leukemia L5222 (CNU=chloroethyl-nitroso-urea)
The compound to be tested was solved in Chremophor EL/ethanol/physiological saline and a single dose was administered intraperitoneally into tumor inoculated BD IX rats. The experiment involved an untreated control group and a number of treated groups. The doses used and the effects of the praeterminal treatment are summarized in the following Table from which the cures (animals free of tumor after 120 days) and the increase in life span (ILS, expressed as percentage of survival of the treated test group to the untreated control group) are evident.
Considering the fact that the true measure of the effectiveness of a drug against a neoplastic desease is the ability of the drug to kill the neoplastic cells at dosages that are not toxic to the host animal and that a quantitative evaluation of drug action is usually obtained by using the L1210 leucemia system in mice, it will be realized that in this test the tumor cells are injected into the peritoneal cavity of a mouse which thereafter is treated with the drug to be tested at a very early time after the inoculation of the tumor, i.e. at the first or second day after tumor inoculation. Thus such screening is done under very favourable test conditions for the drug. Contrary thereto the administration of the drug to be tested is performed relatively late in the case of the rat leucemia L5222, i.e. at the 8th day after tumor inoculation. It must, therefore, be taken that at that time tumor cells have colonized the cerebral region, i.e. the meninges, so that cures can only be obtained if the drug has an activity high enough to kill the leucemia cells in the cerebral region in a praeterminal state. Thus by far more severe test conditions are involved when treating rat leucemia L5222 or type Yoshida sarcoma which is a tumor model and which are hard to influence by known drugs.

[2] = system: Yoshida sarcoma; format: in vivo, rat (male Sprague-Dawley rats); conditions: for tumor-free animals at the end of the experiment (in words) / increase in tumor-free animals (cures) above controls: 120 days; for effect on survival time / life expectancy (in words): experiments 1-4, MeCCNU 45, morpholino-CNU 28 (exp. 3 and 5), dimethylmorpholine-CNU 45, piperidino-CNU 15, picolyl-3-CNU 25, picolyl-3-CNU.HCl 25 mg/kg; for chemotherapeutic activity against Yoshida sarcoma in the colon wall (in words): i.p.; for increase in tumor-free animals (cures) above controls: BCNU, MeCCNU 45, dimethylmorpholine-CNU 45, piperidino-CNU 15, picolyl-3-CNU.HCl 25 mg/kg
Description: The chemotherapeutic activity of nitrosoureas was compared in antitumor tests using Yoshida sarcoma ascited cells implanted into the wall of the descending colon in Sprague-Dawley rats.
(§1) Male Sprague-Dawley rats were used in the experiments. Yoshida sarcome in ascites form was maintained in the same strain of rats by serial intraperitoneal injection of 0,5 ml of ascites fluid.
(§2) 3×10^6 cells were injected into the colon wall in a manner known per se. The chemotherapeutic treatment was carried out on the eighth day after implantation of the tumor cells.
(§3) Water-insoluble compounds were dissolved in Cremophor EL/ethanol/physiological saline (20:20:60: vol.%). Water-soluble substances were dissolved in physiological saline. Cremophor EL is a surfactant on the basis of polyethoxylated castor oil. All test compounds were administered introperitoneally. The nitrosoureas were applied at approximately equitoxic doses corresponding to about 80% of the acute LD50 values observed in healthy rats of the same strain over a 28-day observation period.
(§4) Each experiment involved an untreated control group and a varying number of treated groups. Individual survival times were counted as days after tumor inoculation. At the time of death a record of whether an animal was tumor-free or not was made. All animals alive 120 days after tumor inoculation were killed. Animals that according to macroscopic examination had no tumor at the end of the experiment were considered as cured. Since in a number of control rats also no tumors occurred after 120 days the differences in cures between controls and treated animals rather than absolute numbers are reported. Differences in survival were evaluated statistically by individual comparisons between treated rats and controls using a nonparametric log-rank test (Kalbfleisch and Prentice, The statistical analysis of failure time data, Wiley, New York, 1979). Numerical evaluation was performed using a computerized system.

[3] = Mean animal weight / weight gain after tumor transplantation; format: in vivo, rat (Sprague-Dawley rats); conditions: CP 70 (exp. 1-3), BCNU 25, MeCCNU 45 (exp. 1), picolyl-3-CNU 25, its HCl 25 (exp. 2), morpholino-CNU 28, piperidino-CNU 15 (exp. 3), dimethylmorpholino-CNU 45 mg/kg (exp. 4); for Mean animal weight on day 50: day 50 after tumor transplantation; for Mean animal weight on day 100: day 100 after tumor transplantation
Description: as §1, §2, §3
In all treated animals and at all doses tested the mean weight gain was lower than in the controls. Table 3 gives the mean animal weights measured 50 and 100 days after tumor transplantation in experiments 1 to 5.

[4] = system: Yoshida sarcoma; format: in vivo, rat (male Sprague-Dawley rats); conditions: i.p.
[5] = Water solubility
[6] = Toxicity in treated tumor-bearing rats (Yoshida sarcoma experiments); format: in vivo, rat (Sprague-Dawley rats)
Description: as §1, §2, §3, §4

[7] = system: Yoshida sarcoma; conditions: previous experiments; i.p.; cited from earlier work
[8] = Experiment 3, CP 70, morpholino-CNU 28, piperidino-CNU 15 mg/kg
[9] = Experiment 3, CP 70, morpholino-CNU 28, piperidino-CNU 15 mg/kg, 30 initial animals each
[10] = Experiment 5, CP 70, picolyl-3-CNU.HCl 25, morpholino-CNU 28, piperidino-CNU 15 mg/kg
[11] = Experiment 5, CP 70, picolyl-3-CNU.HCl 25, morpholino-CNU 28, piperidino-CNU 15 mg/kg, 15 initial animals (picolyl-3-CNU.HCl 14)
[12] = Experiment 1, CP 70, BCNU 25, MeCCNU 45 mg/kg
[13] = Experiment 1, CP 70, BCNU 25, MeCCNU 45 mg/kg, initial animals CP 30, BCNU 30, MeCCNU 29
[14] = Experiment 1, i.p. day 8, CP 70, BCNU 25, MeCCNU 45 mg/kg
[15] = Experiment 4, 45 mg/kg, 30 initial animals

## O=NN(CCCl)C(=O)NN1CCOCC1 [Morpholino-CNU, 1-(2-chloroethyl)-1-nitroso-3-(4-morpholino)-urea]
[1]
  effectiveness in rat leukemia L 5222 (in words): very good effectiveness
[2]
  tumor-free animals at the end of the experiment (in words): large number of tumor-free animals
  effect on survival time / life expectancy (in words): improved the survival times significantly
  chemotherapeutic activity against Yoshida sarcoma in the colon wall (in words): clear chemotherapeutic activity
[2]; listed as morpholino-CNU
  tumor-free animals at the end of the experiment (in words): remarkable increase in tumor-free animals
  effect on survival time / life expectancy (in words): significant increase in survival time
  chemotherapeutic activity against Yoshida sarcoma in the colon wall (in words): active
[2]; [8]
  % M (median survival time, untreated control = 100): > 686%
  D1-120 = difference (%) between tf1-120 of treated and untreated animals: 41%
  D120 = difference (%) between tf120 of treated and untreated animals: 34%
  tf1-120 (%) (tf120 + animals dying of toxicity): 70%
  tf120 (%) (animals surviving day 120 without tumor): 63%
[2]; [9]
  tf1-120, No. (tf120 + animals dying of toxicity): 21
  tf120, No. (animals surviving day 120 without tumor): 19
[2]; Experiment 3, i.p. day 8, CP 70, morpholino-CNU 28, piperidino-CNU 15 mg/kg
  M = median survival time: > 120 days
[2]; Experiment 5, cyclophosphamide as a standard
  effect on the survival time on retest (in words): significant increasing effect on the survival time
[2]; [10]
  % M (median survival time, untreated control = 100): 180%
  D1-120 = difference (%) between tf1-120 of treated and untreated animals: 0%
  D120 = difference (%) between tf120 of treated and untreated animals: 0%
[2]; [11]
  tf1-120, No. (tf120 + animals dying of toxicity): 0
  tf120, No. (animals surviving day 120 without tumor): 0
[2]; Experiment 5, i.p. day 8, CP 70, picolyl-3-CNU.HCl 25, morpholino-CNU 28, piperidino-CNU 15 mg/kg
  M = median survival time: 18 days
[2]; Yoshida sarcoma of the rat implanted in the colon
  therapeutic results compared with methyl-CCNU / clinically established nitrosoureas (in words): better therapeutic results than e.g. the compound methyl-CCNU
[3]
  Mean animal weight on day 50: 270 g
  Mean animal weight on day 100: 270 g
[4]
  concentration reached in the distal colon (in words): reached the distal colon at chemotherapeutically effective concentrations
[5]
  water solubility (in words): water-soluble
[5]; listed as Example 2
  water solubility (in words): highly water-soluble

## CC1CCC(NC(=O)N(CCCl)N=O)CC1 (stereo not shown) [MeCCNU, 1-(2-chloroethyl)-3-(4-methylcyclohexyl)-1-nitrosourea]
[2]
  tumor-free animals at the end of the experiment (in words): increased the rate of tumor-free animals alive at the end of the experiment
[2]; CP (exp. 1-3)
  increase in tumor-free animals (cures) above controls: 8%
[2]; [12]
  D1-120 = difference (%) between tf1-120 of treated and untreated animals: 27%
  D120 = difference (%) between tf120 of treated and untreated animals: 8%
  tf1-120 (%) (tf120 + animals dying of toxicity): 52%
  tf120 (%) (animals surviving day 120 without tumor): 33%
[2]; [13]
  tf1-120, No. (tf120 + animals dying of toxicity): 15
  tf120, No. (animals surviving day 120 without tumor): 10
[2]; [14]
  % M (median survival time, untreated control = 100): 130%
  M = median survival time: 60 days
[3]
  Mean animal weight on day 50: 280 g
  Mean animal weight on day 100: 300 g
[6]; at the doses tested
  toxicity (in words): obviously toxic
[6]; rat, in vivo, ip, 45 mg/kg, read-out: animals died without a tumor before day 120
  mortality at 2880 h: 19%
[7]
  activity against Yoshida sarcoma, shown previously (in words): active

## CC1CN(NC(=O)N(CCCl)N=O)CC(C)O1 (stereo not shown) [Dimethylmorpholino-CNU]
[2]
  tumor-free animals at the end of the experiment (in words): remarkable increase in tumor-free animals
  chemotherapeutic activity against Yoshida sarcoma in the colon wall (in words): active
[2]; CP (exp. 1-3)
  increase in tumor-free animals (cures) above controls: 20%
[2]; Experiment 4, 45 mg/kg
  % M (median survival time, untreated control = 100): 374%
  D1-120 = difference (%) between tf1-120 of treated and untreated animals: 27%
  D120 = difference (%) between tf120 of treated and untreated animals: 20%
  tf1-120 (%) (tf120 + animals dying of toxicity): 47%
  tf120 (%) (animals surviving day 120 without tumor): 40%
[2]; [15]
  tf1-120, No. (tf120 + animals dying of toxicity): 14
  tf120, No. (animals surviving day 120 without tumor): 12
[2]; Experiment 4, i.p. day 8, 45 mg/kg
  M = median survival time: 71 days
[2]; compared with controls, CP (exp. 1-3), dimethylmorpholine-CNU 45 mg/kg
  p for improvement of survival time / life expectancy: < 0,05
[2]; listed as Dimethylmorpholine-CNU
  effect on survival time / life expectancy (in words): significantly improved the life expectancy
[2]; listed as dimethylmorpholino-CNU
  effect on survival time / life expectancy (in words): significant increase in survival time
[3]
  Mean animal weight on day 50: 250 g
  Mean animal weight on day 100: 250 g
[4]
  concentration reached in the distal colon (in words): reached the distal colon at chemotherapeutically effective concentrations
[5]
  water solubility (in words): water-soluble
